Data on 2 compounds can be found in paper PMC3274767 (2012).

A word on the Kd: it is the free concentration of one partner at which half of the binding sites on the other are occupied at equilibrium, for simple one-to-one binding. As usually defined, the EC50 is the concentration needed to bring the measured effect to its halfway point. A higher EC50 goes with lower potency in that assay.

Molecules are shown by their SMILES.

Experiment [1] concerns the target T1, GABAA receptor β3 subunit (α1β3 GABAAR) (Homo sapiens, UniProt P14867+P28472).
T1 sequence (P28472 26-473): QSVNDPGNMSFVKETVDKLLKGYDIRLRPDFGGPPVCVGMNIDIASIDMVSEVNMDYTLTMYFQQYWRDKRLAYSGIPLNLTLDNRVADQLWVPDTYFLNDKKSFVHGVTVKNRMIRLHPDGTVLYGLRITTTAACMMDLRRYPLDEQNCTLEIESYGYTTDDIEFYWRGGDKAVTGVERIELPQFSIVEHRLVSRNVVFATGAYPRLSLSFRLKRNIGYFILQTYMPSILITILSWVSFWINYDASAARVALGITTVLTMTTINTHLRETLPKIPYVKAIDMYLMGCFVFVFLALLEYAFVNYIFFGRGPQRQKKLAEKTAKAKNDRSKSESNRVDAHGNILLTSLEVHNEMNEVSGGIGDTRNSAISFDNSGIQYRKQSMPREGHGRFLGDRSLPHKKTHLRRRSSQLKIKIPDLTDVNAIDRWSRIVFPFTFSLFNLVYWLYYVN
T1 sequence (P14867 28-456): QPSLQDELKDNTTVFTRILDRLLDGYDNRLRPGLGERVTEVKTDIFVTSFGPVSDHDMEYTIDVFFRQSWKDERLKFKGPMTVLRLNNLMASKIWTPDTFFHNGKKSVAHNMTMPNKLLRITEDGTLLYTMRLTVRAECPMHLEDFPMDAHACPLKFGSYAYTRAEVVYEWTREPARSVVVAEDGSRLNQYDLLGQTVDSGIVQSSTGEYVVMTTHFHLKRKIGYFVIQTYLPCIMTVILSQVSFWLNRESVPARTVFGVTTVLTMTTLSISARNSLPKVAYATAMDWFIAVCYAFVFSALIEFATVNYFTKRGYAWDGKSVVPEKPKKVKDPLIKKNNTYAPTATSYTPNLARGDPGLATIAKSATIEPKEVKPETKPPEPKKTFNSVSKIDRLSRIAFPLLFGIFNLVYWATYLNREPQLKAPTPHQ
The experiment in a line: [3H]muscimol radioligand filtration binding to purified receptor. The note with it: cited from earlier work.

The target of experiment [2] is T2, GABAA receptor α1 subunit (α1β3 GABAAR) (Homo sapiens, UniProt P14867+P28472).
T2 sequence (P14867 28-456): T1 sequence (P14867 28-456)
T2 sequence (P28472 26-473): T1 sequence (P28472 26-473)
The experiment in a line: photoaffinity labeling with residue identification. The format is binding.

The target of experiment [3] is T1, GABAA receptor β3 subunit (α1β3 GABAAR). The experiment can be described thus: photoaffinity labeling with residue identification. The format is binding.

With `NCc1cc(=O)[nH]o1` [muscimol, 3-hydroxy-5-aminomethylisoxazole], in experiment [1], the Kd was 10 nM. Regarding `CC(c1ccccc1)n1cncc1C(=O)OCCC1(C)N=N1` (stereo not drawn) [azietomidate, 2-(3-methyl-3H-diaziren-3-yl) ethyl 1-(1-phenylethyl)-1H-imidazole-5-carboxylate], the EC50 in experiment [2] and in experiment [3] was 2700 ± 1000 nM in each case.
